Experimental data taken from patent US11318157B2, “6-6 bicyclic aromatic ring substituted nucleoside analogues for use as PRMT5 inhibitors” (Janssen Pharmaceutica NV, priority 2015, dated 2022).
Where two headings read alike, the source gives them in different places.

Experiments:
[1] = molecular target: T1, PRMT5-MEP50 enzyme (Homo sapiens, UniProt O14744); assay: In vitro assay 1b: high throughput mass spectrometer assay of SAH formation, 1.25 nM enzyme, 120 min; format: biochemical; conditions: averaged values; PRMT5-MEP50, 1.25 nM enzyme, 120 min; read-out: pIC50 Assay 1b (converted)
T1 construct: One virus expresses full length human PRMT5 with Flag-tag at N-terminus; Flag (N); purchased Charles River (Argenta); host or cells: insect cells (Sf9), baculovirus co-infection
T1 sequence (O14744 whole entry): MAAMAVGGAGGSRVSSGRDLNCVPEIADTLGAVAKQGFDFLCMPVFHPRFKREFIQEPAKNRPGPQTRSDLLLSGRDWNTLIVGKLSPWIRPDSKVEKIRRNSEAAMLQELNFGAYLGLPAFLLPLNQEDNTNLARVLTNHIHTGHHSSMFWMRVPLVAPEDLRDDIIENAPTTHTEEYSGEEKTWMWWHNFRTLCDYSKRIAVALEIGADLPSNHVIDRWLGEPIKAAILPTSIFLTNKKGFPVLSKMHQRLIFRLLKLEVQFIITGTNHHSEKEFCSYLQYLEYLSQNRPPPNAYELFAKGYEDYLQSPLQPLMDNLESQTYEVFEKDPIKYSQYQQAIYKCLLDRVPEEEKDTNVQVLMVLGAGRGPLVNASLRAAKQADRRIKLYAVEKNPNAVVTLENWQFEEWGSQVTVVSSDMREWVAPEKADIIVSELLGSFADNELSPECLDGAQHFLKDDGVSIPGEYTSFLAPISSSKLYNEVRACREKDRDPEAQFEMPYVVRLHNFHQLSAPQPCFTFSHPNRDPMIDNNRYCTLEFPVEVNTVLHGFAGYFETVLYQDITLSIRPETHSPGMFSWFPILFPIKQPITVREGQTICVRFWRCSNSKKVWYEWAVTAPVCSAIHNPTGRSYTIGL
T1 sequence (Q9BQA1 whole entry partner): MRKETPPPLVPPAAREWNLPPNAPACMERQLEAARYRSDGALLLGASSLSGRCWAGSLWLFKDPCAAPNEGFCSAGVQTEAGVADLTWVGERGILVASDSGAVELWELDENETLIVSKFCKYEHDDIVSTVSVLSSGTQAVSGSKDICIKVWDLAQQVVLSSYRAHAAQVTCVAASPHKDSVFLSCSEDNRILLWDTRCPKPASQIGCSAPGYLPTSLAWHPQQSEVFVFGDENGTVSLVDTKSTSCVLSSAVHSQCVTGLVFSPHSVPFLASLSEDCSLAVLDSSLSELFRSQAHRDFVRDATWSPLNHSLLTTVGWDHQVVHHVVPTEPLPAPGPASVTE
Summary of the method: (§1)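 Flag-PRMT5/His-MEP50 complex from Sf9 cells, with 1 μM SAM and 0.3 μM full-length histone H2A in pH 8.5 Tris buffer, at 30 °C; 10 nM enzyme for 60 min (1a) or 1.25 nM for 120 min (1b). Formic acid-quenched SAH read by RapidFire MS/MS; 11-point IC50 with Hill fit.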

[2] = molecular target: T1, PRMT5-MEP50 enzyme; assay: In vitro assay 1a: high throughput mass spectrometer assay of SAH formation, 10 nM enzyme, 60 min; format: biochemical; conditions: averaged values, PRMT5-MEP50, 10 nM enzyme, read-out: pIC50 Assay 1a (converted)
Summary of the method: as §1

[3] = system: nuclear symmetric Arginine dimethylation in A549 cells; assay: PD assay (assay 2): inhibition of nuclear symmetric Arginine dimethylation (SYM10 immunohistochemistry), 48 h; format: cell-based; conditions: Homo sapiens
Summary of the method: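 Cells seeded at 400/well overnight, then treated 48 h at 37 °C, final DMSO 0.2%. Fixed and stained with SYM10 antibody plus Alexa 488 secondary, Hoechst and CellMask, then imaged on Opera. Normalized to DMSO (high) and 10 μM reference compound (low); averaged pIC50 reported.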

[4] = A549, averaged values, PD assay, A549 cells, symmetric Arginine dimethylation, read-out: pIC50 Assay 2 (converted)
[5] = A549, read-out: pIC50 Assay 2 (converted)

SMILES	IC50 [1] [nM]	IC50 [2] [nM]	IC50 [3, 4] [nM]	IC50 [3, 5] [nM]
N#Cc1cnc2cc(OC[C@H]3O[C@@H](n4ccc5c(N)ncnc54)[C@H](O)[C@@H]3O)ccc2c1 [Compound 98]	1580	631	10000	–
Nc1ncnc2c1ccn2[C@@H]1O[C@H](COc2cc(Cl)c3cccnc3c2)[C@@H](O)[C@H]1O [Compound 102]	501	100	> 10000	–
Nc1ncnc2c1ccn2[C@@H]1O[C@H](CCc2ccc3ccncc3c2)[C@@H](O)[C@H]1O [Compound 103]	1260	398	7940	–
COc1ccnc2cc(OC[C@H]3O[C@@H](n4ccc5c(N)ncnc54)[C@H](O)[C@@H]3O)ccc12 [Compound 104]	15800	5010	> 10000	–
Nc1ccc2ccc(CC[C@H]3C[C@@H](n4ccc5c(Cl)ncnc54)[C@H](O)[C@@H]3O)cc2n1 [Compound 110]	1.58	2	0.501	–
Nc1ncnc2c1ccn2[C@@H]1O[C@H](CCc2ccc3cc(Br)cnc3c2)[C@@H](O)[C@H]1O [Compound 111]	39.8	12.6	63.1	–
CC(C)Cc1cnc2cc(OC[C@H]3O[C@@H](n4ccc5c(N)ncnc54)[C@H](O)[C@@H]3O)ccc2c1 [Compound 112]	200	50.1	398	–
O[C@@H]1[C@@H](CCc2ccc3ccc(NCc4ccc(Cl)cc4)nc3c2)C[C@@H](n2ccc3c(Cl)ncnc32)[C@@H]1O [Compound 114]	25.1	15.8	12.6	–
COCc1cnc2cc(OC[C@H]3O[C@@H](n4ccc5c(N)ncnc54)[C@H](O)[C@@H]3O)ccc2c1 [Compound 120]	316	79.4	316	–
CCc1cnc2cc(CC[C@H]3O[C@@H](n4ccc5c(N)ncnc54)[C@H](O)[C@@H]3O)ccc2c1 [Compound 122]	50.1	12.6	79.4	–
Cc1cnc2cc(CC[C@H]3O[C@@H](n4ccc5c(N)ncnc54)[C@H](O)[C@@H]3O)ccc2c1 [Compound 123]	39.8	5.01	31.6	–
CCc1cnc2cc(CC[C@H]3C[C@@H](n4ccc5c(N)ncnc54)[C@H](O)[C@@H]3O)ccc2c1 [Compound 125]	25.1	3.98	20	–
CNc1ccc2ccc(CC[C@H]3C[C@@H](n4ccc5c(N)ncnc54)[C@H](O)[C@@H]3O)cc2n1 [Compound 126]	2.51	0.501	–	0.316
O[C@@H]1[C@H](O)[C@@H](CCc2ccc3ccc(NCc4ccc(Cl)cc4)nc3c2)O[C@H]1n1ccc2c(Cl)ncnc21 [Compound 127]	100	12.6	126	–
CNc1ccc2ccc(CC[C@H]3O[C@@H](n4ccc5c(Cl)ncnc54)[C@H](O)[C@@H]3O)cc2n1 [Compound 128]	63.1	7.94	200	–
Nc1ncnc2c1ccn2[C@@H]1C[C@H](CCc2ccc3cc(Br)cnc3c2)[C@@H](O)[C@H]1O [Compound 129]	15.8	2.51	–	12.6
Nc1ccc2ccc(OC[C@H]3O[C@@H](n4ccc5c(Cl)ncnc54)[C@H](O)[C@@H]3O)cc2n1 [Compound 130]	7.94	0.631	12.6	–
Nc1ccc2ccc(CC[C@H]3O[C@@H](n4ccc5c(Cl)ncnc54)[C@H](O)[C@@H]3O)cc2n1 [Compound 133]	6.31	0.631	6.31	–
CNc1ccc2ccc(OC[C@H]3O[C@@H](n4ccc5c(Cl)ncnc54)[C@H](O)[C@@H]3O)cc2n1 [Compound 136]	50.1	7.94	501	–
CNc1ccc2ccc(CC[C@H]3O[C@@H](n4ccc5c(N)ncnc54)[C@H](O)[C@@H]3O)cc2n1 [Compound 137]	20	1.58	6.31	–
O[C@@H]1[C@H](O)[C@@H](CCc2ccc3ccc(NCC4CC4)nc3c2)O[C@H]1n1ccc2c(Cl)ncnc21 [Compound 138]	79.4	7.94	126	–
Nc1ncnc2c1ccn2[C@@H]1O[C@H](CCc2ccc3ccc(NCC4CC4)nc3c2)[C@@H](O)[C@H]1O [Compound 139]	10	1.26	6.31	–
O[C@@H]1[C@H](O)[C@@H](COc2ccc3ccc(NCC4CC4)nc3c2)O[C@H]1n1ccc2c(Cl)ncnc21 [Compound 140]	50.1	6.31	794	–
Nc1ncnc2c1ccn2[C@@H]1C[C@H](CCc2ccc3cnc(NCC4CC4)nc3c2)[C@@H](O)[C@H]1O [Compound 141]	50.1	7.94	63.1	–
Nc1cnc2ccc(CC[C@H]3C[C@@H](n4ccc5c(Cl)ncnc54)[C@H](O)[C@@H]3O)cc2n1 [Compound 143]	50.1	10	2510	–
Nc1ncnc2c1ccn2[C@@H]1C[C@H](CCc2ccc3cnc(NC4CC4)nc3c2)[C@@H](O)[C@H]1O [Compound 145]	79.4	15.8	79.4	–
Nc1ncnc2c1ccn2[C@@H]1C[C@H](CCc2ccc3cc(Cl)c(NCC4CC4)nc3c2)[C@@H](O)[C@H]1O [Compound 147]	251	251	31.6	–
Nc1ncnc2c1ccn2[C@@H]1C[C@H](CCc2ccc3cc(Br)c(NCC4CC4)nc3c2)[C@@H](O)[C@H]1O [Compound 148]	794	398	200	–
CC(C)Nc1ccc2ccc(CC[C@H]3C[C@@H](n4ccc5c(N)ncnc54)[C@H](O)[C@@H]3O)cc2n1 [Compound 149]	5.01	0.316	–	1

Now from value to molecule, other results behind:

IC50 [1] [nM]	IC50 [2] [nM]	IC50 [3, 4] [nM]	SMILES	IC50 [3, 5] [nM]
> 100000	> 10000	> 10000	Nc1ncnc2c1ccn2[C@@H]1O[C@H](COc2ccc3c(C(F)(F)F)ccnc3c2)[C@@H](O)[C@H]1O [Compound 99]	–
200	126	794	Nc1ncnc2c1ccn2[C@@H]1O[C@H](COc2cc3ncc(Cl)cc3cc2Cl)[C@@H](O)[C@H]1O [Compound 100]	–
794	1000	2000	Nc1ncnc2c1ccn2[C@@H]1O[C@H](COc2ccc3cc(Cl)cnc3c2Cl)[C@@H](O)[C@H]1O [Compound 101]	–
1000	158	2510	COC(=O)c1cnc2cc(OC[C@H]3O[C@@H](n4ccc5c(N)ncnc54)[C@H](O)[C@@H]3O)ccc2c1 [Compound 105]	–
158	63.1	398	Nc1ncnc2c1ccn2[C@@H]1O[C@H](COc2cc3ncc(Br)cc3cc2F)[C@@H](O)[C@H]1O [Compound 106]	–
3.98	1.26	3.98	Nc1ncnc2c1ccn2[C@@H]1O[C@H](COc2ccc3ccc(NCc4ccccc4)nc3c2)[C@@H](O)[C@H]1O [Compound 107]	–
100	39.8	63.1	Cc1cc2c(N)ncnc2n1[C@@H]1O[C@H](COc2ccc3cc(Br)cnc3c2)[C@@H](O)[C@H]1O [Compound 108]	–
200	126	1000	Nc1ncnc2c1ccn2[C@@H]1O[C@H](COc2ccc3cc(C4CCCC4)cnc3c2)[C@@H](O)[C@H]1O [Compound 109]	–
10	5.01	5.01	Cc1cnc2cc(CC[C@H]3C[C@@H](n4ccc5c(N)ncnc54)[C@H](O)[C@@H]3O)ccc2c1 [Compound 113]	–
5.01	10	~5.5	O[C@@H]1[C@@H](CCc2ccc3ccc(NCC4CC4)nc3c2)C[C@@H](n2ccc3c(Cl)ncnc32)[C@@H]1O [Compound 115]	–
5.01	2	0.631	Nc1ncnc2c1ccn2[C@@H]1C[C@H](CCc2ccc3ccc(NCc4ccc(Cl)cc4)nc3c2)[C@@H](O)[C@H]1O [Compound 124]	–
63.1	7.94	~66.1	O[C@@H]1[C@H](O)[C@@H](COc2ccc3ccc(NCc4ccc(Cl)cc4)nc3c2)O[C@H]1n1ccc2c(Cl)ncnc21 [Compound 131]	–
2.51	0.794	2.51	Nc1ncnc2c1ccn2[C@@H]1O[C@H](COc2ccc3ccc(NCc4ccc(Cl)cc4)nc3c2)[C@@H](O)[C@H]1O [Compound 132]	–
6.31	1	~2.82	Nc1ncnc2c1ccn2[C@@H]1O[C@H](CCc2ccc3ccc(NCc4ccc(Cl)cc4)nc3c2)[C@@H](O)[C@H]1O [Compound 135]	–
7.94	1.26	15.8	Nc1ncnc2c1ccn2[C@@H]1O[C@H](COc2ccc3ccc(NCC4CC4)nc3c2)[C@@H](O)[C@H]1O [Compound 142]	–
2.51	0.251	< 1.17	Nc1ncnc2c1ccn2[C@@H]1C[C@H](CCc2ccc3ccc(NC4CCCC4)nc3c2)[C@@H](O)[C@H]1O [Compound 146]	–
